These results are taken from publication PMC6543911, “Discovery of Coumarin as Microtubule Affinity-Regulating Kinase 4 Inhibitor That Sensitize Hepatocellular Carcinoma to Paclitaxel” (Frontiers in Chemistry, 2019).

SMILES strings stand for the structures.

Usually IC50 stands for the concentration needed to halve the response being measured. A higher IC50 goes with lower potency.

T1 sequence (Q96L34 59-310 limits assumed): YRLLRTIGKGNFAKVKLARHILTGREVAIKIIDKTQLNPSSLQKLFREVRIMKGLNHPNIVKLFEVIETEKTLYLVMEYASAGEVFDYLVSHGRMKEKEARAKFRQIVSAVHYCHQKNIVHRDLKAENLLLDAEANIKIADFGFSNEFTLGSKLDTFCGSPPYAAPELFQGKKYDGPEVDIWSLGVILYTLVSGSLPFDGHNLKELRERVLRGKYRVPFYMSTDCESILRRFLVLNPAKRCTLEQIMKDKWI

The subject of the first experiment is HepG2 cells. Briefly: Cell viability assay (MTT) in HepG2 cells. Type of experiment: cell-based. The settings on record: HepG2 cells transiently transfected with MARK4-knockdown vs control vectors. How it is done:
HepG2 and SMMC-7721 cells were cultured in DMEM medium (Gibco) supplemented with 10% FBS (Gibco, USA). For transient transfection, cells were transfected with DNA by Lipofectamine 2000 (Thermo fisher, USA).
HCC cells (100 μL/each well, 20,000 cells/mL) were seeded in a 96-well culture plate and allowed to grow for 24 h in DMEM medium supplemented with 10% FBS and 1% penicillin/streptomycin sulfate. The cells were then treated with drugs or vehicle control and incubated in a 5% CO2 incubator for indicated time. At the end of incubation, 10 μL of MTT stock solution (5 mg/mL) was added into each well. The plate was continued to be incubated at 37°C for 4 h before the medium was removed. Then, DMSO (100 μL) was added into each well, followed by thorough shaking. The absorbance of the formazan product was measured at 570 nm on Thermo Scientific Varioskan Flash Multimode Reader. The IC50 value was obtained by fitting dose-response data to a three parametric non-linear regression model using GraphPad Prism 6.0 software.
As to `CC(=O)O[C@H]1C(=O)[C@@]2(C)[C@H]([C@H](OC(=O)c3ccccc3)[C@]3(O)C[C@H](OC(=O)[C@H](O)[C@@H](NC(=O)c4ccccc4)c4ccccc4)C(C)=C1C3(C)C)[C@]1(OC(C)=O)CO[C@@H]1C[C@@H]2O` [paclitaxel], the “sensitivity in MARK4-knockdown cells” value is listed as “increased sensitivity”.

The experiment is the same for the next values; noted with them: Homo sapiens; HepG2 cells, MTT.
Molecule `COc1cccc(-c2cc3cc(Cl)cc(Cl)c3oc2=O)c1` [6,8-dichloro-3-(3-methoxyphenyl)-2H-chromen-2-one] gave an IC50 of 15.9 µM.

The next experiment has as its system HepG2 cells. Briefly: Cell apoptosis assay (Annexin V-FITC/PI flow cytometry) in HepG2 cells. Type of experiment: cell-based. The settings on record: 2.5 μM alone. As to the method: HCC cells (2 × 10^5 cells/well) were plated in a 6-well plate and treated with samples at 37°C for 36 h. After incubation, the cells were harvested and washed with ice-cold PBS. Annexin V-FITC-PI apoptosis detection kit (Abcam, USA) was used for a direct observation of viable, early apoptotic, and late apoptotic cells. Annexin V-FITC and propidium iodide were added according to the manufacturer's instructions, and the samples were incubated in the dark for 15 min. The apoptosis ratio was analyzed using BD FACSCalibur flow cytometry.
(In general: Flow cytometry measures light scatter and fluorescence of single cells or particles in a stream.)
As for `CC(=O)O[C@H]1C(=O)[C@@]2(C)[C@H]([C@H](OC(=O)c3ccccc3)[C@]3(O)C[C@H](OC(=O)[C@H](O)[C@@H](NC(=O)c4ccccc4)c4ccccc4)C(C)=C1C3(C)C)[C@]1(OC(C)=O)CO[C@@H]1C[C@@H]2O` [paclitaxel], the “apoptosis, single agent” value is reported as “unable to trigger distinct apoptosis”.

The next experiment has as its target T1, MARK4 catalytic domain (Homo sapiens, UniProt Q96L34).
T1 construct: The recombinant MARK4 catalytic domain was used as kinase; made in house; host or cells: E. coli BL21 (DE3)
Briefly: Kinase activity assay (ADP-Glo) using MARK4 as enzyme. The experiment is classed as biochemical. The settings on record: MARK4 5 nM, 100 μM ATP, 5 μM MAP4, 30 min; duplicate, means ± SEM. As to the method:
MARK4 catalytic domain sequence was subcloned into pET-28a vector. Protein expression in E. coli. BL21 (DE3) was induced by IPTG overnight at 16°C, and the cells were then pelleted by centrifugation at 4,000 rpm for 15 min and resuspended in 20 mL buffer (20 mM Tris-HCl, 150 mM NaCl, 25 mM imidazole pH 8.0). Proteins were purified by nickel-affinity chromatography followed by thrombin cleavage. The proteins were further purified by size-exclusion chromatography using a Superdex 75 column (GE Healthcare).
The kinase activity of MARK4 was measured via ADP-Glo™ kinase assay kit (Promega, USA) under manufacturer's instruction. The recombinant MARK4 catalytic domain was used as kinase. MARK4 (5 nM) activity was tested in a reaction (10 μL) containing 25 mM Tris (pH 7.6), 10 mM MgCl2, 150 mM NaCl, 1 mM EDTA, 1 mM DTT, 100 μM ATP, 5 μM MAP4 and varied concentrations of samples for 30 min. The reaction progress was monitored on Thermo Scientific Varioskan Flash Multimode Reader. Each data point was collected in duplicate and kinetic parameters were obtained using GraphPad Prism v6.0 software.
(ADP-Glo first removes unused ATP, then detects ADP through luciferase.)
With `O=c1oc2ccccc2cc1-c1ccc(F)cc1` [Compound 32], the IC50 worked out at 37.7 ± 6.07 µM.

In turn, `COc1ccc(-c2cc3cc(Br)cc(OC)c3oc2=O)cc1OC` [Compound 33] showed an IC50 of 46.3 ± 3.04 µM. On the same count and under the same terms, to `COc1ccccc1-c1cc2cc(Cl)ccc2oc1=O` [Compound 20] belongs more than 50 µM; to `O=c1sc2ccccc2cc1-c1ccc(F)cc1` [Compound 68, 3-(4-Fluorophenyl)-2H-thiochromen-2-one], 32.2 ± 2.75 µM; to `COc1cc(Br)cc2cc(-c3cccnc3)c(=O)oc12` [Compound 44], more than 50 µM. `COc1cc(=O)oc2ccccc12` [Compound 64] showed an IC50 of 40.4 ± 2.87 µM. In turn, `COc1ccc(-c2cc3ccccc3sc2=O)cc1OC` [Compound 67, 3-(3,4-Dimethoxyphenyl)-2H-thiochromen-2-one] had an IC50 of 11.1 ± 0.786 µM. Molecule `COc1cccc(-c2cc3cc(Cl)cc(Cl)c3oc2=O)c1` [6,8-dichloro-3-(3-methoxyphenyl)-2H-chromen-2-one] came in with an IC50 of 7.8 µM.

Regarding `COc1ccc(-c2cc3cc(Br)cc(OC)c3oc2=O)cc1` [Compound 34], the IC50 is more than 50 µM. In turn, `COc1cc(Br)cc2cc(-c3ccc(O)cc3)c(=O)oc12` [Compound 46] had an IC50 of more than 50 µM.

For the molecule `COc1cccc2cc(C(=O)c3ccccc3)c(=O)oc12` [Compound 48], the IC50 was 2.1 ± 0.372 µM.

As for `COc1cc(-c2cc3cc(Br)cc(OC)c3oc2=O)cc(OC)c1OC` [Compound 37], the IC50 was 37.8 ± 5.43 µM. As to `O=c1cc(-c2ccccc2)c2c(OCc3ccccc3)cc(OCc3ccccc3)cc2o1` [Compound 61], the IC50 was more than 50 µM. Consider `COc1cccc2ccc(=O)oc12` [Compound 1], for which the IC50 is more than 50 µM.

For the molecule `COc1ccc2c(C)cc(=O)oc2c1` [Compound 55], the IC50 is more than 50 µM.

On to `CCOc1cccc2ccc(=O)oc12` [Compound 7], for which the IC50 is more than 50 µM.

Consider `COc1ccc2oc(=O)ccc2c1` [Compound 5], for which 35 ± 3.73 µM corresponded to half-maximal inhibition (IC50). On the same count and under the same terms, to `CC(C)(C)C(=O)c1cc2ccccc2oc1=O` [Compound 53] belongs 25 ± 2.4 µM; to `COc1cccc2cc(-c3ccc(F)cc3)c(=O)oc12` [Compound 17], more than 50 µM; to `COc1cc(Br)cc2cc(-c3cccc(O)c3)c(=O)oc12` [Compound 45], more than 50 µM.

As for `COc1cc(Br)cc2cc(-c3ccc(F)cc3)c(=O)oc12` [Compound 40], inhibition was half-maximal at 38.8 ± 4.83 µM (IC50). Still for that read-out and setting: under `COc1cccc2cc(-c3ccc(Cl)cc3)c(=O)oc12` [Compound 16] stands more than 50 µM. The same measure, in the same setting: under `Cc1cc(=O)oc2cc(O)cc(O)c12` [Compound 56] stands more than 50 µM; under `COc1cc(Br)cc2cc(-c3cccc(OC(C)=O)c3)c(=O)oc12` [Compound 41], more than 50 µM; under `COc1cc(Br)cc2cc(-c3ccc(Cl)cc3)c(=O)oc12` [Compound 39], 16.9 ± 4.26 µM.

For `COc1cccc(-c2cc3cccc(OC)c3oc2=O)c1` [Compound 13], the midpoint of inhibition, the IC50, lay at 8.98 ± 2.74 µM.

`O=c1oc2c(Cl)cc(Cl)cc2cc1-c1ccccc1` [Compound 27] had an IC50 of 42.1 ± 3.99 µM. On the same count and under the same terms, to `COc1cccc(-c2cc3cc(Br)cc(OC)c3oc2=O)c1` [Compound 35] belongs 12.8 ± 1.25 µM; to `COc1ccc(-c2cc3cc(Cl)cc(Cl)c3oc2=O)cc1OC` [Compound 23], 17.4 ± 2.69 µM. Same read-out and setting: under `O=c1cc(O)c2ccccc2o1` [Compound 62] stands more than 50 µM. As for `CC(=O)c1cc2ccccc2oc1=O` [Compound 51], the IC50 is 25.9 ± 2.73 µM. The same measure, in the same setting: to `COc1cccc(-c2cc3ccccc3oc2=O)c1` [Compound 30] belongs 39.3 ± 3.12 µM; to `COc1ccc(-c2cc3ccccc3oc2=O)cc1OC` [Compound 28], more than 50 µM; to `COc1cc(Br)cc2cc(-c3ccccc3)c(=O)oc12` [Compound 38], 40.9 ± 4.04 µM. The same measure, in the same setting: to `COc1ccc(-c2cc3cc(Cl)cc(Cl)c3oc2=O)cc1` [Compound 24] belongs 10 ± 3.65 µM; to `O=c1ccc2cc(Cl)ccc2o1` [Compound 2], more than 50 µM. In turn, `COc1cc(-c2cc3cc(Br)cc(OC)c3oc2=O)c(OC)c(OC)c1OC` [Compound 36] came in with an IC50 of 33.6 ± 2.75 µM. Still for that read-out and setting: under `COc1ccc(-c2cc3cccc(OC)c3oc2=O)cc1OC` [Compound 11] stands 29.7 ± 4.21 µM; under `O=c1oc2ccc(Cl)cc2cc1-c1ccc(Cl)cc1` [Compound 22], 28 ± 2.01 µM. `O=c1cc(OCc2ccccc2)c2ccccc2o1` [Compound 63] displayed an IC50 of more than 50 µM. `COc1cccc(-c2cc3cc(Cl)cc(Cl)c3oc2=O)c1` [Compound 25]: the IC50 is 7.76 ± 2.93 µM. Molecule `O=c1oc2ccccc2cc1-c1ccccc1` [Compound 31] came in with an IC50 of 35 ± 5.78 µM. Molecule `COc1ccc2ccc(=O)oc2c1` [Compound 10] came in with an IC50 of 25.1 ± 5.81 µM. Same read-out and setting: under `CC(C)(C)c1cc(C(C)(C)C)c2oc(=O)ccc2c1` [Compound 9] stands more than 50 µM; under `COc1cccc2cc(-c3ccccc3)c(=O)oc12` [Compound 15], 31.5 ± 2.28 µM. On the same count and under the same terms, to `Cc1ccc2oc(=O)ccc2c1` [Compound 6] belongs more than 50 µM; to `O=c1ccc2ccccc2o1` [Compound 4], 41 ± 5.4 µM; to `COc1ccc(OC)c(-c2cc3cc(Br)cc(OC)c3oc2=O)c1` [Compound 43], more than 50 µM. `COc1ccc(-c2cc3cc(Cl)ccc3oc2=O)cc1` [Compound 19] registered an IC50 of 27 ± 2.38 µM.

In the case of `COc1ccc(-c2cc3ccccc3sc2=O)cc1` [Compound 66, 3-(4-Methoxyphenyl)-2H-thiochromen-2-one], the IC50 is 35.6 ± 3.9 µM. The IC50 values of the last two molecules are within 1.5-fold of each other. Same read-out and setting: under `COc1ccc(-c2cc3cccc(OC)c3oc2=O)cc1` [Compound 12] stands 22.8 ± 4.61 µM; under `COc1cc(OC)c2c(C)cc(=O)oc2c1` [Compound 58], more than 50 µM.

Molecule `O=C(c1ccccc1)c1cc2cc(Cl)ccc2oc1=O` [Compound 49] displayed an IC50 of 4.12 ± 0.605 µM. `Cc1cc(=O)oc2cc(OCc3ccccc3)cc(OCc3ccccc3)c12` [Compound 59] came in with an IC50 of more than 50 µM. The same measure, in the same setting: under `COc1ccc(-c2cc3ccccc3oc2=O)cc1` [Compound 29] stands 37.4 ± 2.84 µM; under `O=C(c1ccccc1)c1cc2ccccc2oc1=O` [Compound 52], 27 ± 3.65 µM; under `O=c1cc(-c2ccccc2)c2c(O)cc(O)cc2o1` [Compound 57], more than 50 µM.

As for `O=c1ccc2cc([N+](=O)[O-])ccc2o1` [Compound 8], the IC50 came out at 37.9 ± 3.45 µM.

As to `COc1cc(OC)c2c(-c3ccccc3)cc(=O)oc2c1` [Compound 60], the IC50 is more than 50 µM. On the same count and under the same terms, to `O=c1ccc2cc(Cl)cc(Cl)c2o1` [Compound 3] belongs more than 50 µM. Still for that read-out and setting: under `COc1cc(-c2cc3cccc(OC)c3oc2=O)cc(OC)c1OC` [Compound 14] stands 34.5 ± 3.3 µM; under `COc1ccccc1-c1cc2cc(Cl)cc(Cl)c2oc1=O` [Compound 26], more than 50 µM.

Take `COc1cc(Br)cc2cc(-c3ccc(OC(C)=O)cc3)c(=O)oc12` [Compound 42]: the IC50 is more than 50 µM. Same read-out and setting: to `O=C(c1ccccc1)c1cc2c(ccc3ccccc32)oc1=O` [Compound 54] belongs 21.3 ± 2 µM. Same read-out and setting: under `COc1cccc2cc(C(C)=O)c(=O)oc12` [Compound 47] stands 14.6 ± 2.99 µM; under `COc1ccc(-c2cc3cc(Cl)ccc3oc2=O)cc1OC` [Compound 18], 31 ± 2.81 µM; under `COc1cc(-c2cc3cc(Cl)ccc3oc2=O)cc(OC)c1OC` [Compound 21], 25.5 ± 1.01 µM. As for `O=c1sc2ccccc2cc1-c1ccccc1` [Compound 65], half-maximal inhibition (IC50) was put at 36.1 ± 1.65 µM.
